Measured values published in PMC9606187, “Dual HDAC/BRD4 Inhibitors Relieves Neuropathic Pain by Attenuating Inflammatory Response in Microglia After Spared Nerve Injury” (Neurotherapeutics, 2022).

How the values were obtained:
[1] = target: T1, Recombinant Human Bromodomain containing protein 4, bromodomain 1 (BRD4-BD1) (Homo sapiens, UniProt O60885); test: AlphaScreen bromodomain binding assay (Reaction Biology), BRD4-1
T1 construct: bromodomain 1 (aa 44–170); purchased Reaction Biology (RBC) RD-11–140; host or cells: E. coli
Description: The reader assay is a binding assay using AlphaScreen technology […] assay and was performed by Reaction Biology (www.reactionbiology.com). The biotinylated peptide binding to the reader domain of His-tagged protein is monitored by the singlet oxygen transfer from the Streptavidin-coated donor beads to the AlphaScreen Ni-chelate acceptor beads.
Reaction buffer: 50 mM Hepes, pH7.5, 100 mM NaCl, 0.05% CHAPS, 0.1% BSA, and 1% DMSO (the final DMSO concentration may differ depending on compound stock and test concentrations).
Bromodomain: BRD4-1: RBC Cat# RD-11–140: Recombinant Human Bromodomain containing protein 4, bromodomain 1 (aa 44–170; Genbank Accession # NM_058243), expressed in E. coli with N-terminal His-tag. MW = 17.8 kDa; BRD4-2: RBC Cat# RD-11–141: Recombinant Human Bromodomain containing protein 4, bromodomain 2 (aa 349–460;Genbank Accession # NM_058243), expressed in E. coli with N-terminal His-tag. MW = 15.7 kDa. Ligand (C-term-Biotin): Histone H4 peptide (1–21) K5/8/12/16Ac-Biotin. Detection beads: PerkinElmer: Donor beads: Streptavidin-coated donor beads; Acceptor beads: AlphaScreen Ni acceptor beads.
Reaction procedure: • Deliver 2.5X BRD in wells of reaction plate except No BRD control wells. Add buffer instead. • Deliver compounds in 100% DMSO into the BRD mixture by Acoustic technology (Echo550; nanoliter range). […]

SNI mice [2] = test: Mechanical allodynia (Dynamic Plantar Aesthesiometer) in SNI mice; assay type: in vivo
Description: Mice were randomly assigned to each treatment group. […] Maria Novella Romanelli, iBET762 (molibresib; (4S)-6-(4-Chlorophenyl)-N-ethyl-8-methoxy-1-methyl-4H-[1,2,4]triazolo[4,3,a][1,4] benzodiazepine-4-acetamide, and SAHA (vorinostat; suberoylanilide hydroxamic acid) (Sigma-Aldrich, Italy) were administered 15 min before the tests. Drugs were dissolved in 5% DMSO. Drug concentrations were prepared in such a way that the necessary dose could be administered in a volume of 10 µl per mouse by intranasal (i.n.) administration. The experimental protocol to test the effect of treatments on behavioral and in vitro tests included 3 control groups: untreated, vehicle (5% DMSO), and saline.
For i.n. administration, mice were slightly anesthetized by 2% isoflurane inhalation and placed in a supine position [30]. A 5 μl aliquot of solution (treatments or vehicle) was slowly dropped alternatively to each nostril with a micropipette tip.
Behavioral testing was performed before surgery to establish a baseline for comparison with post-surgical values. Mono-neuropathy was induced by spared nerve injury and this model of pain in mice has been in use for several years [31]. The SNI procedure was performed as previously described [31].
Animals were habituated to the testing environment daily for at least 2 days before baseline testing. To evaluate onset and progression of pain hypersensitivity, neuropathic mice were monitored by measuring nociceptive responses every 30 min for 3 h before surgery or 3, 7, 10, and 14 days after nerve surgery. Experiments were performed on post-surgery day 7 and 14 when the pain hypersensitivity was well established. Each mouse served as its own control, the responses being measured both before and after surgery. All testing was performed with a blind procedure.
Mechanical allodynia was measured by using Dynamic Plantar Aesthesiometer (Ugo Basile, Bologna, Italy), as described [32]. Nociceptive response for mechanical sensitivity was expressed as mechanical paw withdrawal threshold (PWT) in grams. PWT was quantified by an observer blinded to the treatment.

SNI mice [3] = test: Hole-board test; assay type: in vivo; conditions: 50 µM i.n., vs vehicle-treated SNI mice
Description: The spontaneous locomotor behavior was evaluated by using the hole-board test. Movements of the animal on the plane represent the spontaneous mobility, and the head-dips in the holes by the mice represent the exploratory activity.

SNI mice [4] = test: Observation of sedation or motor dysfunction; assay type: in vivo; conditions: single administration 50 µM i.n.
[5] = Intrinsic fluorescence of the compound in spinal cord after i.n. delivery; assay type: in vivo, mice
Excerpt: On postsurgical day 14, animals were perfused transcardially with 4% paraformaldehyde in 0.1 M phosphate buffer (PBS, pH 7.4). After perfusion, lumbar spinal cord was quickly removed and processed as previously described. Four animals per groups were used for this analysis. […] Primary antibody used was IBA1 (1:100; Santa Cruz Biotechnology Cat# sc-32725, RRID:AB_667733). […] A Leica DM6000B fluorescence microscope equipped with a DFC350FX digital camera with appropriate excitation and emission filters for each fluorophore was used to acquire representative images. […] The immunofluorescence intensity was calculated by ImageJ (Wayne Rasband, National Institute of Health, USA).
Co-localization of two different labels was measured using EzColocalization plugin (ImageJ). The extent of co-localization was determined by calculating the Mander’s overlap coefficient (MOC) and the Pearson’s correlation coefficient (PCC). […] PCC quantify the correlation between individual fluorophores considering their intensities. PCC is characterized by determined value range: −1, which indicate anticolocalization; +1, which indicates colocalization; 0, which indicates there is no colocalization.

BRD4 = test: Western blot of lumbar spinal cord, BRD4; assay type: in vivo, mice; conditions: SNI ipsilateral side, day 7 and 14 post-surgery, i.n.
Description: (§1) The lumbar spinal cord was removed 7 and 14 days after surgery and 90 min after the intranasal administration of SUM52, corresponding to the peack of the effect. Samples (n = 4 for groups) were homogenized in a homogenization buffer and processed as previously described. Protein samples (40 µg of protein/sample) were separated on 10% SDS-PAGE and transferred onto nitrocellulose membranes (120 min at 100 V) using standard procedures. Membranes were blocked in PBST (PBS containing 0.1% Tween) containing 5% nonfat dry milk for 120 min. […] Blots were then extensively washed and developed using enhanced chemiluminescence detection system (Pierce, Milan, Italy) and signal intensity (pixels/mm^2) quantified (ImageJ, NIH). […] For each sample, the signal intensity was normalized to that of total protein stained by Ponceau S and the acquired images were quantified using Image Lab software. […]

iNOS (NOS2) = test: Western blot of lumbar spinal cord, iNOS; assay type: in vivo, mice; conditions: SNI ipsilateral side, day 7 and 14
Description: as §1

Cc1nnc2n1-c1ccccc1C(c1ccccc1)=N[C@H]2CC(=O)NCCCCCCC(=O)NO [SUM52, (S)-N-hydroxy-7-(2-(1-methyl-6-phenyl-4H-benzo[f][1,2,4]triazolo[4,3-a][1,4]diazepin-4-yl)acetamido)heptanamide]
IC50 [1]: 0.758 µM | mechanical antiallodynic activity, ipsilateral side (SNI mice [2]; 10–100 µM i.n.): attenuated SNI-induced mechanical allodynia | duration of activity in attenuating mechanical allodynia compared with SUM35 (SNI mice [2]; SUM52 50 µM vs SUM35 100 µM): more prolonged activity | efficacy in attenuating mechanical allodynia compared with SUM35 (SNI mice [2]; SUM52 50 µM vs SUM35 100 µM, day 7 and 14 post-surgery): higher efficacy | mechanical analgesic effect in the contralateral side (SNI mice [2]; contralateral (uninjured) side of SNI mice): absence | mechanical antiallodynic efficacy compared with SAHA + iBET762 combination (SNI mice [2]; time-course comparison, combination i-BET762 10 µg, SAHA 3 µg): comparable efficacy | exploratory activity (hole board test) (SNI mice [3]): no alteration | spontaneous mobility (hole board test) (SNI mice [3]): no alteration | apparent sedation or motor dysfunction (SNI mice [4]): No animal showed apparent sedation or motor dysfunction | distribution to spinal cord (intrinsic fluorescence) ([5]; after i.n. delivery, vs vehicle-treated mice): able to reach the spinal cord and diffuse into the tissue | intrinsic fluorescence in microglial cells ([5]; spinal cord sections of SNI mice, IBA1 co-staining): detected in IBA1 positive microglial cells | spinal BRD4 protein expression (BRD4): restored both epigenetic enzyme levels to control values | NOS2 (iNOS) expression (iNOS (NOS2)): reduced NOS2 overactivation
